Reference: US8541575B2, “3,4-diarylpyrazoles as protein kinase inhibitors” (Nerviano Medical Sciences S.R.L., priority 2008, dated 2013)
pIC50: −log10 of the molar value.

How the values were obtained:
Type in all cases: cell-based
[1] = tested on: p-MAPK (T202/Y204) in A375 human melanoma cells, having a mutated B-RAF; experiment: p-MAPK (T202/Y204) ArrayScan assay; conditions: A-375, treated 1.5 or 2 hours, p-MAPK cytoplasmatic fluorescence, read-out: Array Scan A375 IC50
Method: p-MAPK (T202/Y204) ArrayScan Assay
A375 human melanoma cells, having a mutated B-RAF, are seeded in 384-well poly-lysine coated plates (Matrix) at a density of 1000 cells/well with appropriate medium supplemented with 10% FCS and incubated for 16-24 hours. Cells are treated for 1.5 or 2 hours with increasing doses of compounds (starting dose 10 μM, dilution factor 2.5). At the end of the treatment cells are fixed with p-formaldehyde 3.7% for 15-30 min, then washed twice with D-PBS […] and permeabilized with D-PBS containing 0.1% Triton X-100 and 1% BSA (Sigma-Aldrich) for 15 minutes at room temperature (staining solution). Anti-phospho-MAPK (T202/Y204) monoclonal antibody E10 (Cell Signaling, cat. #9106) diluted 1:100 is added in staining solution and incubated for 1 hour at 37° C. After removal of the primary antibody solution, the anti-mouse Cy™2-conjugated (Green) secondary antibody (Amersham) diluted 1:500 in staining solution containing 2 μg/ml DAPI is added. The plate is incubated for 1 hour at 37° C., washed twice and then red with Cellomics' ArrayScan VTI (4 fields/well, CytoNucTrans algorithm).
The parameter “MEAN_RingAvgIntenCh2”, which measures the mean cytoplasmatic fluorescence intensity associated to p-MAPK staining, is reported as the final result.

[2] = tested on: human melanoma cells Mewo (with wild-type B-Raf); experiment: In vitro cell proliferation assay, Mewo; conditions: 72 hours treatment, cellular ATP readout
Method: (§1) In Vitro Cell Proliferation Assay
(§2) Exponentially growing human melanoma cells A375 (with a mutated B-RAF) and human melanoma cells Mewo (with wild-type B-Raf) were seeded and incubated at 37° C. in a humidified 5% CO2 atmosphere. After 24 hours, scalar doses of the compound were added to the medium and cells oncubated for 72 hours. At the end of treatment, cells were washed and counted. Cell number was determined by a cellular adenosine triphosphate monitoring system. Cell proliferation was compared to control cells and the concentration inhibiting cell growth by 50% was calculated.

[3] = tested on: human melanoma cells A375 (with a mutated B-RAF); experiment: In vitro cell proliferation assay, A375; conditions: A-375, 72 hours treatment, cellular ATP readout
Method: as §1, §2

| SMILES | pIC50 [1] | pIC50 [2] | pIC50 [3] |
| --- | --- | --- | --- |
| CCNc1nccc(-c2c[nH]nc2-c2cccc(NS(=O)(=O)c3cc(F)ccc3F)c2)n1 [compound 55, N-(3-{4-[2-(ethylamino)pyrimidin-4-yl]-1H-pyrazol-3-yl}phenyl)-2,5-difluorobenzenesulfonamide] | 6.77 | < 5.00 | 5.90 |
| O=C(Nc1ccc(Cl)cc1)Nc1cccc(-c2n[nH]cc2-c2ccncc2)c1 [compound 9, 1-(4-Chloro-phenyl)-3-[3-(4-pyridin-4-yl-1H-pyrazol-3-yl)-phenyl]-urea] | 5.32 | < 5.00 | 5.39 |
| CC(=O)Nc1cc(-c2c[nH]nc2-c2cccc(NC(=O)Nc3ccc(C(F)(F)F)cc3)c2)ccn1 [Cmpd. 17, N-[4-(3-{3-[3-(4-Trifluoromethyl-phenyl)-ureido]-phenyl}-1H-pyrazol-4-yl)-pyridin-2-yl]-acetamide] | > 7.40 | 5.03 | 6.60 |
| O=S(=O)(Nc1ccc(F)c(-c2n[nH]cc2-c2ccncc2)c1F)c1ccsc1 [Cmpd. 19, Thiophene-3-sulfonic acid [2,4-difluoro-3-(4-pyridin-4-yl-1H-pyrazol-3-yl)-phenyl]-amide] | 6.08 | < 5.00 | 5.50 |
| Nc1nccc(-c2c[nH]nc2-c2cccc(NS(=O)(=O)c3cc(F)ccc3F)c2)n1 [compound 34, N-{3-[4-(2-aminopyrimidin-4-yl)-1H-pyrazol-3-yl]phenyl}-2,5-difluorobenzene-sulfonamide] | 6.47 | < 5.00 | 5.50 |
| CC(C)(C)c1ccc(NC(=O)c2cccc(-c3n[nH]cc3-c3ccncc3)c2)cc1 [Cmpd. 4, N-(4-tert-Butyl-phenyl)-3-(4-pyridin-4-yl-1H-pyrazol-3-yl)-benzamide] | 5.90 | 5.23 | 5.64 |
| O=S(=O)(Nc1cccc(-c2n[nH]cc2-c2ccncc2)c1)c1cc(F)ccc1F [Cmpd. 2, 2,5-Difluoro-N-[3-(4-pyridin-4-yl-1H-pyrazol-3-yl)-phenyl]-benzenesulfonamide] | 6.19 | < 5.00 | 5.85 |
| O=C(Nc1ccc(C(F)(F)F)cc1)Nc1cccc(-c2nn(CCF)cc2-c2ccncc2)c1 [Cmpd. 13, 1-{3-[1-(2-Fluoro-ethyl)-4-pyridin-4-yl-1H-pyrazol-3-yl]-phenyl}-3-(4-trifluoromethyl-phenyl)-urea] | 6.25 | 5.09 | 5.86 |
| O=C(Nc1cccc(-c2nn(CCF)cc2-c2ccncc2)c1)Nc1ccc(Cl)c(C(F)(F)F)c1 [Cmpd. 5, 1-(4-Chloro-3-trifluoromethyl-phenyl)-3-{3-[1-(2-fluoro-ethyl)-4-pyridin-4-yl-1H-pyrazol-3-yl]-phenyl}-urea] | 5.68 | 5.17 | 5.37 |
| CCCCn1cc(-c2ccncc2)c(-c2cccc(NC(=O)Nc3ccc(C(F)(F)F)cc3)c2)n1 [compound 49, 1-[3-(1-Butyl-4-pyridin-4-yl-1H-pyrazol-3-yl)-phenyl]-3-(4-trifluoromethyl-phenyl)-urea] | 5.80 | 5.34 | 5.58 |
| CC(C)Cn1cc(-c2ccncc2)c(-c2c(F)ccc(NS(=O)(=O)c3cc(F)ccc3F)c2F)n1 [compound 56, N-[3-(1-i-Butyl-4-pyridin-4-yl-1H-pyrazol-3-yl)-2,4-difluoro-phenyl]-2,5-difluoro-benzenesulfonamide] | > 8.00 | < 5.00 | > 7.70 |
| CCn1cc(-c2ccncc2)c(-c2cccc(NC(=O)Nc3ccc(C(F)(F)F)cc3)c2)n1 [compound 10, 1-[3-(1-Ethyl-4-pyridin-4-yl-1H-pyrazol-3-yl)-phenyl]-3-(4-trifluoromethyl-phenyl)-urea] | 6.27 | 5.12 | 5.79 |
| CCC(=O)Nc1cc(-c2c[nH]nc2-c2cccc(NC(=O)Nc3ccc(C(F)(F)F)cc3)c2)ccn1 [compound 39, N-(4-{3-[3-({[4-(trifluoromethyl)phenyl]carbamoyl}amino)phenyl]-1H-pyrazol-4-yl}pyridin-2-yl)propanamide] | 5.63 | < 5.00 | 5.94 |
| O=C(CCCO)Nc1cc(-c2c[nH]nc2-c2cccc(NC(=O)Nc3ccc(C(F)(F)F)cc3)c2)ccn1 [compound 43, 4-hydroxy-N-(4-{3-[3-({[4-(trifluoromethyl)phenyl]carbamoyl}amino)phenyl]-1H-pyrazol-4-yl}pyridin-2-yl)butanamide] | 6.39 | < 5.00 | 5.46 |
| CNc1cc(-c2c[nH]nc2-c2c(F)ccc(NS(=O)(=O)c3cc(F)ccc3F)c2F)ccn1 [compound 53, N-{2,4-Difluoro-3-[4-(2-methylamino-pyridin-4-yl)-1H-pyrazol-3-yl]-phenyl}-2,5-difluoro-benzenesulfonamide] | 6.06 | < 5.00 | 5.76 |
| O=C(Nc1ccc(C(F)(F)F)cc1)Nc1cccc(-c2nn(CCO)cc2-c2ccncc2)c1 [Cmpd. 14, 1-{3-[1-(2-Hydroxy-ethyl)-4-pyridin-4-yl-1H-pyrazol-3-yl]-phenyl}-3-(4-trifluoromethyl-phenyl)-urea] | 5.58 | < 5.00 | 5.16 |
| O=S(=O)(Nc1cccc(-c2n[nH]cc2-c2ccncc2)c1)c1ccco1 [Cmpd. 6, Furan-2-sulfonic acid [3-(4-pyridin-4-yl-1H-pyrazol-3-yl)-phenyl]amide] | 5.26 | < 5.00 | 5.12 |
| CC(C)Cn1cc(-c2ccncc2)c(-c2cccc(NC(=O)Nc3ccc(C(F)(F)F)cc3)c2)n1 [Cmpd. 50, 1-[3-(1-Isobutyl-4-pyridin-4-yl-1H-pyrazol-3-yl)-phenyl]-3-(4-trifluoromethyl-phenyl)-urea] | 5.95 | 5.29 | 5.72 |
| CCCS(=O)(=O)Nc1ccc(F)c(-c2n[nH]cc2-c2ccncc2)c1F [Cmpd. 21, Propane-1-sulfonic acid [2,4-difluoro-3-(4-pyridin-4-yl-1H-pyrazol-3-yl)-phenyl]-amide] | 5.75 | < 5.00 | 5.37 |
| O=C(Cc1ccc(C(F)(F)F)cc1)Nc1cccc(-c2n[nH]cc2-c2ccncc2)c1 [Cmpd. 16, N-[3-(4-Pyridin-4-yl-1H-pyrazol-3-yl)-phenyl]-2-(4-trifluoromethyl-phenyl)-acetamide] | 5.87 | < 5.00 | 5.54 |
| Cn1cc(-c2ccncc2)c(-c2cccc(NC(=O)Nc3ccc(C(F)(F)F)cc3)c2)n1 [Cmpd. 48, 1-[3-(1-Methyl-4-pyridin-4-yl-1H-pyrazol-3-yl)-phenyl]-3-(4-trifluoromethyl-phenyl)-urea] | 5.75 | < 5.00 | 5.41 |
| N#CCn1cc(-c2ccncc2)c(-c2cccc(NC(=O)Nc3ccc(C(F)(F)F)cc3)c2)n1 [compound 11, 1-[3-(1-Cyanomethyl-4-pyridin-4-yl-1H-pyrazol-3-yl)-phenyl]-3-(4-trifluoromethyl-phenyl)-urea] | 6.64 | 5.11 | 5.95 |
| CCn1cc(-c2ccncc2)c(-c2c(F)ccc(NS(=O)(=O)c3cccc(F)c3)c2F)n1 [Cmpd. 58, N-[3-(1-Ethyl-4-pyridin-4-yl-1H-pyrazol-3-yl)-2,4-difluoro-phenyl]-3-fluoro-benzenesulfonamide] | 7.40 | < 5.00 | 6.54 |
| Nc1cc(-c2c[nH]nc2-c2cccc(NC(=O)Nc3ccc(C(F)(F)F)cc3)c2)ccn1 [compound 12, 1-{3-[4-(2-aminopyridin-4-yl)-1H-pyrazol-3-yl]phenyl}-3-[4(trifluoromethyl)-phenyl]urea] | 5.33 | < 5.00 | 5.22 |
| O=S(=O)(Nc1cccc(-c2n[nH]cc2-c2ccncc2)c1)c1ccsc1 [Cmpd. 7, Thiophene-3-sulfonic acid [3-(4-pyridin-4-yl-1H-pyrazol-3-yl)-phenyl]-amide] | 5.26 | < 5.00 | 5.13 |
| CC(=O)Nc1nccc(-c2c[nH]nc2-c2cccc(NC(=O)Nc3ccc(C(F)(F)F)cc3)c2)n1 [compound 32, N-(4-{3-[3-({[4-(trifluoromethyl)phenyl]carbamoyl}amino)phenyl]-1H-pyrazol-4-yl}pyrimidin-2-yl)acetamide] | 5.60 | < 5.00 | 5.27 |
| CCn1cc(-c2ccncc2)c(-c2c(F)ccc(NS(=O)(=O)c3ccccc3F)c2F)n1 [Cmpd. 57, N-[3-(1-Ethyl-4-pyridin-4-yl-1H-pyrazol-3-yl)-2,4-difluoro-phenyl]-2-fluoro-benzenesulfonamide] | 7.70 | < 5.00 | 6.48 |
